Reference: patent US20260167623A1 (NIKANG THERAPEUTICS, INC., priority 2022, published 2026)

Tests used:
[1] = molecular target: T1, CDK2 (Homo sapiens, UniProt P24941); test: High-throughput HTRF measurement of cellular endogenous CDK2 level (degradation, DC50/Dmax) in OVCAR3 cells, 6 h; type: cell-based; settings: 6 h compound treatment, HTRF total CDK2, read-out: DC50_OVCAR3_6h
T1 construct: High-Throughput Measurement of Cellular Endogenous CDK2; endogenous in cells; host or cells: OVCAR3
Procedure: High-Throughput Measurement of Cellular Endogenous CDK2
Effects of compounds on cellular CDK2 level were monitored by a high-throughput HTRF assay.
To determine half maximal degradation concentration (DC50) and maximum degradation level (Dmax) values of compounds, cellular CDK2 level was measured in 96-well format using HTRF total CDK2 cellular kit (Cat #64CDK2TPEG) from Cisbio.
On Day 1, OVCAR3 cells were seeded into 96-well tissue-culture treated plates at 20,000 cells/well in 200 μL and incubated overnight at 37° C. in CO2 atmosphere. On Day 2 cells were treated with compounds at concentration ranging from 0.03 to 1,000 nM using HP D300 digital dispenser. 6 hours after compound treatment, cell culture media was removed by flicking the plate and tapping the plate against clean paper towel. Immediately 30 μL 1× lysis buffer was supplemented from the kit and added to each well and the plate is incubated at room temperature on shaker for 30 min. After homogenization by pipetting up and down, 8 μL cell lysate from 96-well cell culture plate was transferred to 384-well small volume white detection plate. 2 μL premixed detection solution was added and the plate is covered with sealer. To prepare the detection solution, d2 conjugated-CDK2 antibody and Eu-cryptate conjugated CDK2 antibody were diluted into detection buffer following manufacturer's instruction. Detection plates were incubated overnight at room temperature and read on ClarioStar (BMG Labtech) in TR-FRET mode (665 nM and 620 nM). The TR-FRET ratio (665 nM/620 nM) was plotted against the compound concentration and normalized to DMSO controls (0% degradation) and lysis buffer controls (100% degradation). Half maximal degradation concentration (DC 50) […] were calculated with a four-parameter logistic fit using GraphPad Prism (version 8; La Jolla, CA).
In the table below, AA indicates a DC50 of greater than or equal to 0.5 nM but less than 1 nM; A indicates a DC50 of greater than or equal to 1 nM but less than or equal to 10 nM; B indicates a DC50 of greater than 10 nM but less than or equal to 100 nM; C indicates a DC50 of greater than 100 nM but less than or equal to 1 μM; and D indicates a DC50 of greater than 1 μM […] but less than or equal to 5 μM. NT means not tested.

[2] = molecular target: T1, CDK2; test: Inhibition of CDK2: phospho-Rb (S807/811) HTRF measurement in OVCAR3 cells, 24 h; type: cell-based; settings: 24 h compound treatment, read-out: pRB_OVCAR3_24h
Method in brief: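 IC50 came from a four-parameter fit of DMSO-normalized TR-FRET ratios (665/620 nm) reporting phospho-Rb S807/811. Lysates were taken from OVCAR3 cultures treated 24 h with compound (0.3 to 10,000 nM) and incubated 4 h at room temperature with the antibody pair.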

Row | SMILES | DC50 [1] [nM] | IC50 [2] [nM]
1 | Cn1nc(N2CCC(=O)NC2=O)c2ccc(C3CCN(CC4CCN(c5cc(S(=O)(=O)N6CCC(Nc7ncc(C(F)(F)F)cn7)CC6)ccc5C#N)CC4)CC3)cc21 [Example 152, 2-(4-((4-(3-(2,4-dioxotetrahydropyrimidin-1(2H)-yl)-1-methyl-1H-indazol-6-yl)piperidin-1-yl)methyl)piperidin-1-yl)-4-((4-((5-(trifluoromethyl)pyrimidin-2-yl)amino)piperidin-1-yl)sulfonyl)benzonitrile] | 1 to 10 | 1 to 100
2 | Cn1nc(N2CCC(=O)NC2=O)c2ccc(C3CCN(Cc4cccc(S(=O)(=O)N5CCC(Nc6ncc(Br)cn6)CC5)c4)CC3)cc21 [Example 24, 1-(6-(1-(3-((4-((5-bromopyrimidin-2-yl)amino)piperidin-1-yl)sulfonyl)benzyl)-piperidin-4-yl)-1-methyl-1H-indazol-3-yl)dihydropyrimidine-2,4(1H,3H)-dione] | 1 to 10 | 100 to 500
3 | Cn1nc(N2CCC(=O)NC2=O)c2ccc(C3CCN(CC(C)(C)Cc4cccc(S(=O)(=O)N5CCC(Nc6ncc(C(F)(F)F)cn6)CC5)c4)CC3)cc21 [Example 55, 1-(6-(1-(2,2-dimethyl-3-(3-((4-((5-(trifluoro-methyl)pyrimidin-2-yl)amino)piperidin-1-yl)sulfonyl)phenyl)propyl)piperidin-4-yl)-1-methyl-1H-indazol-3-yl)dihydropyrimidine-2,4(1H,3H)-dione] | 10 to 100 | 1 to 100
4 | N#Cc1ccc(S(=O)(=O)N2CCC(Nc3ncc(Cl)cn3)CC2)cc1N1CCC(CN2CCC(c3cccc4c3oc(=O)n4C3CCC(=O)NC3=O)CC2)CC1 (stereo not shown) [Example 197, 4-((4-((5-chloropyrimidin-2-yl)amino)piperidin-1-yl)sulfonyl)-2-(4-((4-(3-(2,6-dioxopiperidin-3-yl)-2-oxo-2,3-dihydrobenzo[d]oxazol-7-yl)piperidin-1-yl)methyl)piperidin-1-yl)benzonitrile] | 10 to 100 | 1 to 100
5 | Cn1nc(N2CCC(=O)NC2=O)c2ccc(C3CCN(CC4CCN(c5cccc(S(=O)(=O)N6CCC(Nc7ncc(Cl)cn7)CC6)c5)CC4)CC3)c(F)c21 [Example 95, 1-(6-(1-((1-(3-((4-((5-chloropyrimidin-2-yl)amino)piperidin-1-yl)sulfonyl)phenyl)-piperidin-4-yl)methyl)piperidin-4-yl)-7-fluoro-1-methyl-1H-indazol-3-yl)dihydropyrimidine-2,4(1H,3H)-dione] | 1 to 10 | 1 to 100
6 | Cn1nc(N2CCC(=O)NC2=O)c2ccc(C3CCN(Cc4cccc(S(=O)(=O)N5CCC(Nc6ncc(OC(F)F)cn6)CC5)c4)CC3(F)F)cc21 (stereo not shown) [Example 75, 1-(6-(1-(3-((4-((5-(difluoromethoxy)-pyrimidin-2-yl)amino)piperidin-1-yl)sulfonyl)benzyl)-3,3-difluoropiperidin-4-yl)-1-methyl-1H-indazol-3-yl)dihydropyrimidine-2,4(1H,3H)-dione] |  | 100 to 500
7 | Cn1nc(N2CCC(=O)NC2=O)c2ccc(C3CCN(Cc4cccc(S(=O)(=O)N5CCC(Nc6ncc(C(C)(F)F)cn6)CC5)c4)CC3)cc21 [Example 17, 1-(6-(1-(3-((4-((5-(1,1-difluoroethyl)-pyrimidin-2-yl)amino)piperidin-1-yl)sulfonyl)benzyl)piperidin-4-yl)-1-methyl-1H-indazol-3-yl)dihydropyrimidine-2,4(1H,3H)-dione] |  | > 2500
8 | Cn1nc(N2CCC(=O)NC2=O)c2ccc(C3CCN(CC4CCN(c5cccc(S(=O)(=O)N6CC7CCC(C6)C7Nc6ncc(Cl)cn6)c5)CC4)CC3)cc21 (racemic) [Example 229, Rac-1-(6-(1-((1-(3-(((1R,5S,8s)-8-((5-chloropyrimidin-2-yl)amino)-3-azabicyclo[3.2.1]octan-3-yl)sulfonyl)phenyl)piperidin-4-yl)methyl)piperidin-4-yl)-1-methyl-1H-indazol-3-yl)dihydropyrimidine-2,4(1H,3H)-dione] |  | > 2500
9 | Cn1nc(N2CCC(=O)NC2=O)c2ccc(N3CCC(CN4CCN(c5cccc(S(=O)(=O)N6CCC(Nc7ncc(Cl)cn7)CC6)c5)CC4)CC3)cc21 [Example 138, 1-(6-(4-((4-(3-((4-((5-chloropyrimidin-2-yl)amino)piperidin-1-yl)sulfonyl)phenyl)-piperazin-1-yl)methyl)piperidin-1-yl)-1-methyl-1H-indazol-3-yl)dihydropyrimidine-2,4(1H,3H)-dione] |  | > 2500
10 | O=C1CCC(N2Cc3cc(N4CCN(CC5CCN(c6cccc(S(=O)(=O)N7CCC(Nc8ncc(Cl)cn8)CC7)c6)CC5)CC4)c(F)cc3C2=O)C(=O)N1 (stereo not shown) [Example 103, 3-(5-(4-((1-(3-((4-((5-chloropyrimidin-2-yl)amino)piperidin-1-yl)sulfonyl)phenyl)-piperidin-4-yl)methyl)piperazin-1-yl)-6-fluoro-1-oxoisoindolin-2-yl)piperidine-2,6-dione] |  | 500 to 2500
11 | Cn1nc(N2CCC(=O)NC2=O)c2ccc(C3CCN(CC4CCN(c5cc(S(=O)(=O)N6CCC(Nc7ncc(C(F)(F)F)cn7)CC6)ccc5F)CC4)CC3)cc21 [Example 142, 1-(6-(1-((1-(2-fluoro-5-((4-((5-(trifluoro-methyl)pyrimidin-2-yl)amino)piperidin-1-yl)sulfonyl)phenyl)piperidin-4-yl)methyl)-piperidin-4-yl)-1-methyl-1H-indazol-3-yl)dihydropyrimidine-2,4(1H,3H)-dione] |  | 1 to 100
12 | O=C1CCN(c2ccc(N3CCN(CC4CCN(c5cccc(S(=O)(=O)N6CCC(Nc7ncc(Cl)cn7)CC6)c5)CC4)CC3)cc2)C(=O)N1 [Example 109, 1-(4-(4-((1-(3-((4-((5-chloropyrimidin-2-yl)amino)piperidin-1-yl)sulfonyl)phenyl)-piperidin-4-yl)methyl)piperazin-1-yl)phenyl) dihydropyrimidine-2,4(1H,3H)-dione] |  | 100 to 500

Now from value to molecule:

Row | DC50 [1] [nM] | IC50 [2] [nM] | SMILES
13 | 10 to 100 | 1 to 100 | Cn1nc(N2CCC(=O)NC2=O)c2ccc(C3CCN(Cc4cccc(S(=O)(=O)N5CCC(Nc6ncc(C(F)(F)F)cn6)CC5)c4)CC3)c(F)c21 [Example 2, 1-(7-fluoro-1-methyl-6-(1-(3-((4-((5-(trifluoromethyl)pyrimidin-2-yl)amino)piperidin-1-yl)sulfonyl)benzyl)-piperidin-4-yl)-1H-indazol-3-yl)dihydropyrimidine-2,4(1H,3H)-dione]
14 | 1 to 10 | 1 to 100 | N#Cc1ccc(S(=O)(=O)N2CCC(Nc3ncc(C(F)(F)F)cn3)CC2)cc1N1CCC(CN2CCC(c3cccc4c3oc(=O)n4C3CCC(=O)NC3=O)CC2)CC1 (stereo not shown) [Example 198, 2-(4-((4-(3-(2,6-dioxopiperidin-3-yl)-2-oxo-2,3-dihydrobenzo[d]oxazol-7-yl)piperidin-1-yl)methyl)piperidin-1-yl)-4-((4-((5-(trifluoromethyl)pyrimidin-2-yl)amino)piperidin-1-yl)sulfonyl)benzonitrile]
15 | 1000 to 5000 | 1 to 100 | O=C1CCC(N2Cc3cc(N4CCC(CN5CCN(c6cccc(S(=O)(=O)N7CCC(Nc8ncc(C(F)(F)F)cn8)CC7)c6)CC5)CC4)ccc3C2=O)C(=O)N1 (stereo not shown) [Example 248, 3-(1-oxo-5-(4-((4-(3-((4-((5-(trifluoromethyl)pyrimidin-2-yl)amino)piperidin-1-yl)sulfonyl)phenyl)piperazin-1-yl)methyl)piperidin-1-yl)isoindolin-2-yl)piperidine-2,6-dione]
16 |  | 100 to 500 | Cn1nc(N2CCC(=O)NC2=O)c2ccc(C3CCN(Cc4ccc(C#Cc5cccc(S(=O)(=O)N6CCC(Nc7ncc(C(F)(F)F)cn7)CC6)c5)cc4)CC3)cc21 [Example 232, 1-(1-methyl-6-(1-(4-((3-((4-((5-(trifluoromethyl)pyrimidin-2-yl)amino)piperidin-1-yl)sulfonyl)phenyl)ethynyl)benzyl)piperidin-4-yl)-1H-indazol-3-yl)dihydropyrimidine-2,4(1H,3H)-dione]
17 |  | 500 to 2500 | Cn1nc(N2CCC(=O)NC2=O)c2ccc(C#CCN3CCN(c4cccc(S(=O)(=O)N5CCC(Nc6ncc(C(F)(F)F)cn6)CC5)c4)CC3)cc21 [Example 230, 1-(1-methyl-6-(3-(4-(3-((4-((5-(trifluoromethyl)pyrimidin-2-yl)amino)piperidin-1-yl)sulfonyl)phenyl)piperazin-1-yl)prop-1-yn-1-yl)-1H-indazol-3-yl)dihydropyrimidine-2,4(1H,3H)-dione]
